Experimental data from the Deep4Chem optical property database.
One block for each molecule: values may come before it.

Assay: solvent given as SMILES

Structure (SMILES): CC1(C)OB(c2cc3ccc4cccc5ccc(c2)c3c45)OC1(C)C
fluorescence lifetime (in Cc1ccccc1): 82 ns

Structure (SMILES): COC(=O)C(NC(=O)OC(C)(C)C)c1ccc2oc(-c3ccc(O)cc3O)nc2c1 (stereo unspecified)
fluorescence lifetime (in CC1CCCCC1): 0.3 ns
fluorescence lifetime (in CC#N): 1.44 ns
fluorescence lifetime (in CO): 1.33 ns

Structure (SMILES): N#Cc1c(-n2c3ccccc3c3ccccc32)cc(N2c3ccccc3C(c3ccccc3)(c3ccccc3)c3ccccc32)cc1-n1c2ccccc2c2ccccc21
fluorescence lifetime (in Cc1ccccc1): 18.4 ns

Structure (SMILES): c1cc2c3ccc[n+]4cccc(c5ccc[n+](c1)c25)c34
fluorescence lifetime (in CC#N): 7.4 ns
fluorescence lifetime (in CS(C)=O): 4.4 ns
fluorescence lifetime (in C[N+](=O)[O-]): 6.2 ns
fluorescence lifetime (in O): 6.8 ns

Structure (SMILES): Cc1ccccc1[B-]1(c2ccccc2C)n2nc(C(F)(F)F)cc2-c2c3ccccc3cc[n+]21
fluorescence lifetime (in C1CCCCC1): 0.525 ns
fluorescence lifetime (in Cc1ccccc1): 0.425 ns
fluorescence lifetime (in ClCCl): 0.938 ns

Structure (SMILES): Cn1ccc(-c2nc3ccccc3nc2/C=C/N2CCCC2)c1
fluorescence lifetime (in C1CCCCC1): 1.87 ns
fluorescence lifetime (in C1CCOC1): 6.61 ns
fluorescence lifetime (in CC#N): 5.96 ns
fluorescence lifetime (in CC(C)=O): 6.72 ns
fluorescence lifetime (in CCO): 0.39 ns
fluorescence lifetime (in CO): 0.12 ns
fluorescence lifetime (in CS(C)=O): 5.54 ns
fluorescence lifetime (in Cc1ccccc1): 5.1 ns
fluorescence lifetime (in ClCCl): 8.33 ns

Structure (SMILES): COc1ccc(C2=C3C(C)=CC(C=Cc4ccc(C(=O)OC5C[C@H]6CCC5(C)C6(C)C)cc4)=[N+]3[B-](F)(F)n3c(C)cc(C)c32)cc1 (stereo partly specified)
fluorescence lifetime (in Cc1ccccc1): 3.82 ns

Structure (SMILES): Cc1cc(-c2ccc(-c3ccccc3)cc2)nc(-c2ccc(-n3c4ccccc4c4ccccc43)cc2)n1
fluorescence lifetime (in C1CCOC1): 3.36 ns
fluorescence lifetime (in CN(C)C=O): 12.2 ns
fluorescence lifetime (in Cc1ccccc1): 1.15 ns
fluorescence lifetime (in ClC(Cl)Cl): 3.19 ns

Structure (SMILES): c1ccc(-c2cnc3nn4ccccc4c3c2)cc1
fluorescence lifetime (in C1CCOC1): 4.7 ns

Structure (SMILES): O=C1c2cc(F)ccc2-c2cnccc21
fluorescence lifetime (in CC#N): 5.6 ns
fluorescence lifetime (in CCOC(C)=O): 6.6 ns
fluorescence lifetime (in Cc1ccccc1): 4.5 ns
fluorescence lifetime (in ClCCl): 6.3 ns

Structure (SMILES): Cn1c(/C=C/c2ccc(/C=C/c3nc4ccccc4[nH]3)cc2)[n+](C)c2ccccc21
fluorescence lifetime (in C1CCOC1): 1.43 ns
fluorescence lifetime (in CC#N): 1.16 ns
fluorescence lifetime (in CC(C)=O): 1.15 ns
fluorescence lifetime (in CN(C)C=O): 1.11 ns
fluorescence lifetime (in CO): 0.773 ns
fluorescence lifetime (in CS(C)=O): 1.22 ns
fluorescence lifetime (in O): 0.42 ns

Structure (SMILES): Cc1cc(C)c2nc3[nH]c(=O)[nH]c(=O)c3nc2c1
fluorescence lifetime (in CC#N): 1.65 ns

More lines, now with the values ahead:

fluorescence lifetime (in ClCCl): 2.8 ns
Structure (SMILES): CCOC(=O)c1ccc(C2=Cc3cc4ccccc4cc3P2(=O)c2ccccc2)cc1 (stereo unspecified)

fluorescence lifetime (in CC#N): 0.85 ns
fluorescence lifetime (in CO): 0.54 ns
fluorescence lifetime (in O): 1.12 ns
Structure (SMILES): CN(C)CCCN1c2ccccc2CCc2ccccc21

fluorescence lifetime (in C1CCOC1): 4.4 ns
Structure (SMILES): CCC1(CC)c2cc(B(c3c(C)cc(C)cc3C)c3c(C)cc(C)cc3C)ccc2-c2c1c1c(c3c2C(CC)(CC)c2cc(B(c4c(C)cc(C)cc4C)c4c(C)cc(C)cc4C)ccc2-3)C(CC)(CC)c2cc(B(c3c(C)cc(C)cc3C)c3c(C)cc(C)cc3C)ccc2-1

fluorescence lifetime (in ClC(Cl)Cl): 1.58 ns
Structure (SMILES): COc1ccc(C2=Cc3c4ccccc4c4ccccc4[n+]3[B-](F)(F)O2)cc1

fluorescence lifetime (in CCC(C)C): 0.52 ns
fluorescence lifetime (in ClCCl): 0.44 ns
Structure (SMILES): c1csc(-c2ccc(-c3ccc(-c4cccs4)s3)s2)c1

fluorescence lifetime (in ClCCl): 6.5 ns
Structure (SMILES): Cc1csc2[n+]1[B-](F)(F)n1c(c3cccc4cccc1c43)=N2

fluorescence lifetime (in C1CCOC1): 5.02 ns
fluorescence lifetime (in C1COCCO1): 5.29 ns
fluorescence lifetime (in CC#N): 4.91 ns
fluorescence lifetime (in CCCCCCC): 4.54 ns
fluorescence lifetime (in CCO): 3.66 ns
fluorescence lifetime (in O): 4.2 ns
fluorescence lifetime (in OCC(O)CO): 2.17 ns
fluorescence lifetime (in OCCO): 2.8 ns
Structure (SMILES): CCOC(=O)C1CC(c2c(C#N)c(C)nn2-c2ccccc2)=CN1c1ccc(Br)cc1 (stereo unspecified)

fluorescence lifetime (in ClCCl): 0.8 ns
Structure (SMILES): CCOC(=O)/N=c1/oc2cc(OC)ccc2cc1C#N

fluorescence lifetime (in C1CCOC1): 18.1 ns
Structure (SMILES): CCC1(CC)c2cc(B(c3c(C)cc(C)cc3C)c3c(C)cc(C)cc3C)ccc2-c2c1c1c(c3c2C(CC)(CC)c2cc(N(c4ccccc4)c4ccccc4)ccc2-3)C(CC)(CC)c2cc(B(c3c(C)cc(C)cc3C)c3c(C)cc(C)cc3C)ccc2-1

fluorescence lifetime (in ClCCl): 1.78 ns
Structure (SMILES): CCCCn1c(-c2ccc(-c3nnc(-c4ccc5ccccc5c4)o3)cc2)nc2c3ccccc3c3ccccc3c21

fluorescence lifetime (in ClC(Cl)Cl): 2.57 ns
Structure (SMILES): C(#Cc1ccc(C#Cc2ccccc2)cc1)c1ccccc1

fluorescence lifetime (in C1CCCCC1): 4 ns
fluorescence lifetime (in CC#N): 5.4 ns
fluorescence lifetime (in CO): 3.1 ns
fluorescence lifetime (in O): 4.4 ns
Structure (SMILES): Nc1ccc2cn[nH]c2c1

fluorescence lifetime (in ClCCl): 3.7 ns
Structure (SMILES): Cc1nc(-c2cc(C(F)(F)F)ccc2O)n2c1CCCC2

fluorescence lifetime (in ClC(Cl)Cl): 5.13 ns
Structure (SMILES): c1ccc(N(c2ccccc2)c2ccc(-c3ccc(-c4ccc(-c5ccc(-c6ccc(N(c7ccccc7)c7ccccc7)cc6)s5)c5nsnc45)s3)cc2)cc1
